Laboratory results reported in patent publication US7582627B2, “3-aminoquinazolin-2,4-dione antibacterial agents” (Warner-Lambert Company, priority 2000, dated 2009).
≈ marks a conversion by molar mass, not a printed value. Counter-ions that a name gives are not always drawn. Like-named read-outs stand apart in the source and are kept apart here. Each block holds one molecule with its values, some of them ahead of it.

How the values were obtained:
E. faecalis RB1 = test: Antibacterial assay, microtitration MIC; assay type: cell-based; conditions: for MIC: Enterococcus faecalis
Protocol: (§1) The compounds of the present invention are tested against an assortment of Gram negative and Gram positive organisms using standard microtitration techniques (Cohen et al., Antimicrob. Agents Chemother., 1985; 28:766; Heifetz et al., Antimicrob. Agents Chemother., 1974; 6:124). The results of the evaluation of representative 3-aminoquinazolin-2,4-diones of Formula I are shown in Table 2 and compared to two 3-hydroxyquinazolin-2,4-diones.

E. coli MC4100 = test: Antibacterial assay, microtitration MIC; assay type: cell-based; conditions: for MIC: Escherichia coli
Protocol: as §1

E. coli B90 = test: Antibacterial assay, microtitration MIC; assay type: cell-based; conditions: for MIC: Escherichia coli
Protocol: as §1

S. aureus 29213 = test: Antibacterial assay, microtitration MIC; assay type: cell-based
Protocol: as §1

E. coli Tol C = test: Antibacterial assay, microtitration MIC; assay type: cell-based; conditions: for MIC: Escherichia coli, read-out: Minimum Inhibitory Concentrations E. coli Tol C
Protocol: as §1

S. pyogenes C203 = test: Antibacterial assay, microtitration MIC; assay type: cell-based; conditions: for MIC: Streptococcus pyogenes
Protocol: as §1

E. coli gyrase = target: T1, E. coli gyrase (Escherichia coli, UniProt P0AES4+P0AES6); test: DNA gyrase supercoiling inhibition assay; assay type: biochemical
T1 construct: purchased Lucent, Ltd., Leicester, UK
Protocol: The effects of invention compounds on the activity of DNA gyrase is determined in the supercoiling inhibition assay, following reaction conditions recommended by the enzyme supplier (Lucent, Ltd., Leicester, UK). Reactions are performed in buffer G (35 mM Tris-HCl (pH 7.5), 24 mM KCl, 4 mM MgCl2, 2 mM DTT, 1.8 mM spermidine, 1 mM ATP, 0.1 mg/mL bovine serum albumin). Relaxed plasmid pBR322 (0.25 μg, Lucent, Ltd., Leicester, UK) is reacted with 1 U E. coli gyrase (Lucent, Ltd., Leicester, UK), in the absence or presence of test compounds, for 30 minutes at 37° C. Reactions are stopped by the addition of SDS and proteinase K to respective final concentrations of 1% and 0.5 mg/mL. After an additional 30 minutes at 37° C., one-tenth volume of 10× loading buffer (0.3% bromophenol blue, 16% Ficoll, 10 mM Na2HPO4) is added, and reactions are loaded onto agarose gels and electrophoresed. The concentration of representative invention compounds of Formula I inhibiting 50% of the supercoiling activity of DNA gyrase is given as an IC50 and recorded in Table 2.

[1] = RB1, Gram positive, read-out: Minimum Inhibitory Concentrations E. faecalis RB1
[2] = MC4100, Gram negative, read-out: Minimum Inhibitory Concentrations E. coli MC4100
[3] = B90, Gram negative, read-out: Minimum Inhibitory Concentrations E. coli B90
[4] = Staphylococcus aureus, 29213, Gram positive, read-out: Minimum Inhibitory Concentrations S. aureus 29213
[5] = C203, Gram positive, read-out: Minimum Inhibitory Concentrations S. pyogenes C203
[6] = supercoiling of relaxed pBR322, 30 minutes at 37° C., read-out: E. coli gyrase IC50
[7] = RB1, read-out: Minimum Inhibitory Concentrations E. faecalis RB1
[8] = MC4100, read-out: Minimum Inhibitory Concentrations E. coli MC4100
[9] = B90, read-out: Minimum Inhibitory Concentrations E. coli B90
[10] = Staphylococcus aureus, 29213, read-out: Minimum Inhibitory Concentrations S. aureus 29213
[11] = C203, read-out: Minimum Inhibitory Concentrations S. pyogenes C203

SMILES: N[C@@H]1[C@H]2CN(c3cc4c(cc3F)c(=O)n(O)c(=O)n4C3CC3)C[C@@H]12 [drawing 284, reference compound]
MIC (E. faecalis RB1; [1]): 4 µg/mL (≈ 12 µM) | MIC (E. coli MC4100; [2]): 1 µg/mL (≈ 3.01 µM) | MIC (E. coli B90; [3]): 0.25 µg/mL (≈ 0.752 µM) | MIC (S. aureus 29213; [4]): 4 µg/mL (≈ 12 µM) | MIC (E. coli Tol C): 0.25 µg/mL (≈ 0.752 µM) | MIC (S. pyogenes C203; [5]): 2 µg/mL (≈ 6.02 µM) | IC50 (E. coli gyrase; [6]): 900 nM

SMILES: Cl.N[C@@H]1CN(c2c(F)cc3c(=O)n(N)c(=O)n(C4CC4)c3c2Cl)CC12CC2 [Compound 14, 3-Amino-7-((S)-7-amino-5-azaspiro[2.4]hept-5-yl)-8-chloro-1-cyclopropyl-6-fluoro-1H-quinazoline-2,4-dione hydrochloride]
melting point: 177 to 179 °C | MIC (E. faecalis RB1; [1]): 8 µg/mL | MIC (E. coli MC4100; [2]): 4 µg/mL | MIC (E. coli B90; [3]): 0.25 µg/mL | MIC (S. aureus 29213; [4]): 8 µg/mL | MIC (E. coli Tol C): 0.5 µg/mL | MIC (S. pyogenes C203; [5]): 4 µg/mL | IC50 (E. coli gyrase): 2400 nM

SMILES: N[C@H]1CCN(c2c(F)c(F)c3c(=O)n(N)c(=O)n(C4CC4)c3c2F)C1 [Compound 9, 3-Amino-7-((S)-3-aminopyrrolidin-1-yl)-1-cyclopropyl-5,6,8-trifluoro-1H-quinazoline-2,4-dione hydrochloride]
MIC (E. faecalis RB1; [7]): 32 µg/mL | MIC (E. coli MC4100; [8]): 2 µg/mL | MIC (E. coli B90; [9]): 1 µg/mL | MIC (S. aureus 29213; [10]): 16 µg/mL | MIC (E. coli Tol C): 0.5 µg/mL | MIC (S. pyogenes C203; [11]): 16 µg/mL | IC50 (E. coli gyrase; [6]): 3000 nM

SMILES: Cl.N[C@H]1CCN(c2c(F)cc3c(=O)n(N)c(=O)n(NC4CC4)c3c2F)C1 [Compound 7, 3-Amino-7-[(S)-3-aminopyrrolidin-1-yl]-1-cyclopropylamino-6,8-difluoro-1H-quinazoline-2,4-dione hydrochloride]
Minimum Inhibitory Concentrations E. faecalis RB1 (E. faecalis RB1; Gram positive): 8.0 µg/mL | Minimum Inhibitory Concentrations E. coli MC4100 (E. coli MC4100; Gram negative): 2.0 µg/mL | Minimum Inhibitory Concentrations E. coli B90 (E. coli B90; Gram negative): 0.5 µg/mL | Minimum Inhibitory Concentrations S. aureus 29213 (S. aureus 29213; Gram positive): 8.0 µg/mL | Minimum Inhibitory Concentrations E. coli Tol C (E. coli Tol C; Gram negative): 0.25 µg/mL | Minimum Inhibitory Concentrations S. pyogenes C203 (S. pyogenes C203; Gram positive): 4.0 µg/mL | IC50 (E. coli gyrase; [6]): 1300 nM

SMILES: Nc1c(F)c(N2CC[C@H](N)C2)c(F)c2c1c(=O)n(N)c(=O)n2C1CC1 [Compound 11, 7-((S)-3-Aminopyrrolidin-1-yl)-1-cyclopropyl-3,5-diamino-6,8-difluoro-1H-quinazoline-2,4-dione hydrochloride]
MIC (E. faecalis RB1; [7]): 8 µg/mL | MIC (E. coli MC4100; [8]): 2 µg/mL | MIC (E. coli B90; [9]): 0.5 µg/mL | MIC (S. aureus 29213; [10]): 8 µg/mL | MIC (E. coli Tol C): 0.25 µg/mL | MIC (S. pyogenes C203; [11]): 4 µg/mL | IC50 (E. coli gyrase; [6]): 11000 nM

SMILES: Cl.Nn1c(=O)c2cc(F)c(N3CCC(N)(c4ccccc4)C3)c(Cl)c2n(C2CC2)c1=O (centres unmarked)
melting point: 198 to 200 °C

SMILES: NC1CCN(c2ccc3c(=O)n(N)c(=O)n(C4CC4)c3c2F)C1.O=C(O)C(F)(F)F (centres unmarked)
melting point: 210 to 212 °C

SMILES: Cc1c(N2CCC(C)(CN)C2)c(F)cc2c(=O)n(N)c(=O)n(C3CC3)c12.Cl (centres unmarked)
melting point: 210 °C

SMILES: Cc1c(N2CC3C(N)C3C2)c(F)cc2c(=O)n(N)c(=O)n(C3CC3)c12.Cl (centres unmarked)
melting point: 180 to 182 °C

SMILES: Cc1c(N2CCC(N)(c3ccccc3)C2)c(F)cc2c(=O)n(N)c(=O)n(C3CC3)c12.Cl (centres unmarked)
melting point: 236 °C

SMILES: Cl.Nn1c(=O)c2cc(F)c(N3CCCC3)c(Cl)c2n(C2CC2)c1=O
melting point: 96 to 98 °C

SMILES: N[C@H]1CCN(c2c(F)c(F)c3c(=O)n(N)c(=O)n(C4CC4)c3c2F)C1 (as salt: hydrochloride) [Compound 9, 3-Amino-7-((S)-3-aminopyrrolidin-1-yl)-1-cyclopropyl-5,6,8-trifluoro-1H-quinazoline-2,4-dione hydrochloride]
melting point: 271 °C (dec.)

SMILES: Cc1c(N2CCC(C(=O)O)C2)c(F)cc2c(=O)n(N)c(=O)n(C3CC3)c12.O=C(O)C(F)(F)F (centres unmarked)
melting point: 226 °C (dec.)

SMILES: Nn1c(=O)c2cc(F)c(N3CCC4(CCNC4)C3)c(Cl)c2n(C2CC2)c1=O (centres unmarked) [Compound 62, 3-Amino-8-chloro-1-cyclopropyl-7-(2,7-diazaspiro[4.4]non-2-yl)-6-fluoro-1H-quinazoline-2,4-dione]
melting point: 147 to 149 °C

SMILES: Cl.N[C@@H]1CN(c2c(F)cc3c(=O)n(N)c(=O)n(C4CC4)c3c2Cl)C[C@H]1c1ccc(O)cc1 (relative stereo)
melting point: > 200 °C

SMILES: Cl.NC1C2CN(c3nc4c(cc3F)c(=O)n(N)c(=O)n4C3CC3)CC12 (centres unmarked)
melting point: 268 to 270 °C

SMILES: O=c1c2cc(F)c(N3C[C@@H]4CCCN[C@@H]4C3)cc2n(C2CC2)c(=O)n1O [reference compound]
MIC (E. faecalis RB1; [1]): 64 µg/mL (≈ 178 µM) | MIC (E. coli MC4100; [2]): 8 µg/mL (≈ 22.2 µM) | MIC (E. coli B90; [3]): 2 µg/mL (≈ 5.55 µM) | MIC (S. aureus 29213; [4]): 32 µg/mL (≈ 88.8 µM) | MIC (E. coli Tol C): 1 µg/mL (≈ 2.77 µM) | MIC (S. pyogenes C203; [5]): 32 µg/mL (≈ 88.8 µM) | IC50 (E. coli gyrase; [6]): 5000 nM

SMILES: CN[C@@H](C)[C@@H]1CCN(c2cc3c(c(C)c2F)c(=O)n(N)c(=O)n3C2CC2)C1.Cl
melting point: 182 to 185 °C

SMILES: Cc1c(F)c(N2CCC(N)C2)cc2c1c(=O)n(N)c(=O)n2C1CC1.Cl (centres unmarked)
melting point: 238 to 240 °C

SMILES: C[C@@H]1CN(c2c(F)cc3c(=O)n(N)c(=O)n(C4CC4)c3c2Cl)C[C@H]1CN.Cl (relative stereo)
melting point: 215 to 217 °C

Second part, the molecule after the results:

melting point: 228 to 230 °C
SMILES: COc1c(N2CC[C@H]([C@@H](C)N)C2)c(F)cc2c(=O)n(N)c(=O)n(C3CC3)c12.Cl [Compound 133]

melting point: 178 to 180 °C
SMILES: Cc1c(N2CCCC2)c(F)cc2c(=O)n(N)c(=O)n(C3CC3)c12.Cl

melting point: 141 to 144 °C
SMILES: NC(=O)C1CCCN(c2c(F)cc3c(=O)n(N)c(=O)n(C4CC4)c3c2Cl)C1 (centres unmarked) [Compound 58, 1-(3-Amino-8-chloro-1-cyclopropyl-6-fluoro-2,4-dioxo-1,2,3,4-tetrahydroquinazolin-7-yl)piperidine-3-carboxylic acid amide]

melting point: > 250 °C
SMILES: COc1c(N2CC3CCCCC3(CN)C2)c(F)cc2c(=O)n(N)c(=O)n(C3CC3)c12.Cl (centres unmarked)

melting point: 245 to 247 °C
SMILES: Cc1c(F)c(N2CC[C@H]([C@@H](C)N)C2)cc2c1c(=O)n(N)c(=O)n2C1CC1.Cl

melting point: 180 to 182 °C
SMILES: COc1c(N2CCC(CN)C2)c(F)cc2c(=O)n(N)c(=O)n(C3CC3)c12.Cl (centres unmarked)

melting point: 240 °C
SMILES: Cc1c(N2CC(C)C(C(C)N)C2)c(F)cc2c(=O)n(N)c(=O)n(C3CC3)c12.Cl (centres unmarked)

melting point: 237 to 240 °C
SMILES: Cc1c(N2CCC(C)(N)C2)c(F)cc2c(=O)n(N)c(=O)n(C3CC3)c12.Cl (centres unmarked)

melting point: 118 to 120 °C
SMILES: CN[C@H]1CCN(c2c(F)cc3c(=O)n(N)c(=O)n(C4CC4)c3c2Cl)C1 (as salt: hydrochloride) [Compound 5, 3-Amino-7-((S)-3-N-methylaminopyrrolidin-1-yl)-8-chloro-1-cyclopropyl-6-fluoro-1H-quinazoline-2,4-dione hydrochloride]

melting point: 137 to 139 °C
SMILES: CN[C@H](C)[C@@H]1CCN(c2nc3c(cc2F)c(=O)n(N)c(=O)n3C2CC2)C1.Cl

melting point: 201 °C
SMILES: COc1c(N2CCCC(CN)C2)c(F)cc2c(=O)n(N)c(=O)n(C3CC3)c12.Cl (centres unmarked)

melting point: 208 to 210 °C
SMILES: COc1cc2c(=O)n(N)c(=O)n(C3CC3)c2c(F)c1N1CCC(N)C1.Cl (centres unmarked)

melting point: > 250 °C
SMILES: COC1CN(c2c(F)cc3c(=O)n(N)c(=O)n(C4CC4)c3c2C)CC1N.Cl (centres unmarked)

melting point: 204.5 °C
SMILES: COc1c(N2CC(C)C(C(C)N)C2)c(F)cc2c(=O)n(N)c(=O)n(C3CC3)c12.Cl (centres unmarked)

melting point: 158 to 160 °C
SMILES: Cl.NCCC1CCN(c2c(F)cc3c(=O)n(N)c(=O)n(C4CC4)c3c2Cl)C1 (centres unmarked)

melting point: 153 to 155 °C
SMILES: CN[C@@H](C)[C@@H]1CCN(c2c(F)cc3c(=O)n(N)c(=O)n(C4CC4)c3c2C)C1.Cl

melting point: 216 to 218 °C
SMILES: COc1c(N2CCC(N)C2)c(F)cc2c(=O)n(N)c(=O)n(C3CC3)c12.Cl (centres unmarked)
